Experimental data reported in PubChem BioAssay AID2060344 (Molecular Pharmacology Branch, DTP, NCI, 2025).
Several values for one entry are separate records, joined by “and”; a condition that tells them apart may be missing. Equal entries are not always repeated.

Test system: SK-MEL-2 multi-cell spheroids, viability
Assay: Anticancer human tumor SK-MEL-2 cell line growth inhibition [TAK];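 note: spheroids exposed to drugs for seven days before readout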;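 for viability, T/C: percent of DMSO vehicle control luminescence so 100% = untreated viability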
Conditions: for viability, T/C: stronger effect = lower value
Procedure, shortened: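 Drug combinations, each paired with TAK-243 or ipatasertib, were tested on multi-cell spheroids of 60% malignant cells, 25% HUVEC and 15% hMSC. Top concentrations were at or near the clinical Cmax (10 microM if undetermined), decreasing by half-log; viability is given as % test/control.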

[1] = curve of first compound, second compound 0.3 µM
[2] = curve of first compound, second compound 0.949 µM
[3] = curve of first compound, second compound 3 µM
[4] = curve of first compound, second compound 9.49 µM
[5] = curve of first compound, second compound 30 µM

**Q.** Which IC50 [1] does the source give for `COC1CC2CCC(C)C(O)(O2)C(=O)C(=O)N2CCCCC2C(=O)OC(C(C)CC2CCC(OCCO)C(OC)C2)CC(=O)C(C)C=C(C)C(O)C(OC)C(=O)C(C)CC(C)C=CC=CC=C1C` (stereo not drawn) + CC(C)NCC(C(=O)N1CCN(c2ncnc3c2C(C)CC3O)CC1)c1ccc(Cl)cc1 here?
**A.** 4.54 nM

**Q.** And the IC50 [2]?
**A.** 0.725 nM

**Q.** What about the IC50 [3] of the same compound?
**A.** < 0.316 nM

**Q.** And the IC50 [4]?
**A.** < 0.316 nM

**Q.** What about the IC50 [5] of the same compound?
**A.** < 0.316 nM

**Q.** What about the viability, T/C (second compound 0.3 µM, first compound 0.000316 µM) of the same compound?
**A.** 72.6%

**Q.** What about the viability, T/C (second compound 0.3 µM, first compound 0.001 µM) of the same compound?
**A.** 60.3%

**Q.** What about the viability, T/C (second compound 0.3 µM, first compound 0.00316 µM) of the same compound?
**A.** 48.9%

**Q.** And the viability, T/C (second compound 0.3 µM, first compound 0.01 µM)?
**A.** 49.6%

**Q.** And the viability, T/C (second compound 0.3 µM, first compound 0.0316 µM)?
**A.** 45.1%

**Q.** What about the viability, T/C (second compound 0.3 µM, first compound 0.1 µM) of the same compound?
**A.** 42.6%

**Q.** What about the viability, T/C (second compound 0.949 µM, first compound 0.000316 µM) of the same compound?
**A.** 58.9%

**Q.** What about the viability, T/C (second compound 0.949 µM, first compound 0.001 µM) of the same compound?
**A.** 47.5%

**Q.** What about the viability, T/C (second compound 0.949 µM, first compound 0.00316 µM) of the same compound?
**A.** 39.2%

**Q.** And the viability, T/C (second compound 0.949 µM, first compound 0.01 µM)?
**A.** 38.6%

**Q.** And the viability, T/C (second compound 0.949 µM, first compound 0.0316 µM)?
**A.** 37.9%

**Q.** And the viability, T/C (second compound 0.949 µM, first compound 0.1 µM)?
**A.** 36.8%

**Q.** And the viability, T/C (second compound 3 µM, first compound 0.000316 µM)?
**A.** 45.5%

**Q.** And the viability, T/C (second compound 3 µM, first compound 0.001 µM)?
**A.** 37.7%

**Q.** What about the viability, T/C (second compound 3 µM, first compound 0.00316 µM) of the same compound?
**A.** 27.7%

**Q.** And the viability, T/C (second compound 3 µM, first compound 0.01 µM)?
**A.** 27.3%

**Q.** And the viability, T/C (second compound 3 µM, first compound 0.0316 µM)?
**A.** 30.2%

**Q.** And the viability, T/C (second compound 3 µM, first compound 0.1 µM)?
**A.** 28%

**Q.** What about the viability, T/C (second compound 9.49 µM, first compound 0.000316 µM) of the same compound?
**A.** 36.7%

**Q.** And the viability, T/C (second compound 9.49 µM, first compound 0.001 µM)?
**A.** 30.7%

**Q.** What about the viability, T/C (second compound 9.49 µM, first compound 0.00316 µM) of the same compound?
**A.** 23.2%

**Q.** And the viability, T/C (second compound 9.49 µM, first compound 0.01 µM)?
**A.** 23.6%

**Q.** What about the viability, T/C (second compound 9.49 µM, first compound 0.0316 µM) of the same compound?
**A.** 24%

**Q.** What about the viability, T/C (second compound 9.49 µM, first compound 0.1 µM) of the same compound?
**A.** 21.6%

**Q.** What about the viability, T/C (second compound 30 µM, first compound 0.000316 µM) of the same compound?
**A.** 30.3%

**Q.** What about the viability, T/C (second compound 30 µM, first compound 0.001 µM) of the same compound?
**A.** 27.6%

**Q.** What about the viability, T/C (second compound 30 µM, first compound 0.00316 µM) of the same compound?
**A.** 20.4%

**Q.** What about the viability, T/C (second compound 30 µM, first compound 0.01 µM) of the same compound?
**A.** 19.1%

**Q.** What about the viability, T/C (second compound 30 µM, first compound 0.0316 µM) of the same compound?
**A.** 22%

**Q.** What about the viability, T/C (second compound 30 µM, first compound 0.1 µM) of the same compound?
**A.** 17.9%

**Q.** `CC(=O)Nc1cccc(-n2c(=O)n(C3CC3)c(=O)c3c(Nc4ccc(I)cc4F)n(C)c(=O)c(C)c32)c1` was tested. Which viability, T/C (compound 94.9 pM) did it give?
**A.** 91% and 88.6%

**Q.** What about the viability, T/C (compound 0.0003 µM) of the same compound?
**A.** 40.3% and 35.3%

**Q.** And the viability, T/C (compound 0.000949 µM)?
**A.** 17.9% and 15.7%

**Q.** What about the viability, T/C (compound 0.003 µM) of the same compound?
**A.** 6.38% and 5.17%

**Q.** What about the viability, T/C (compound 0.00949 µM) of the same compound?
**A.** 3.87% and 4.14%

**Q.** And the viability, T/C (compound 0.03 µM)?
**A.** 2.42% and 3.1%

**Q.** What about the IC50 (curve of compound) of the same compound?
**A.** 0.242 nM and 0.22 nM

**Q.** `Cc1nc(NC(=O)N2CCCC2C(N)=O)sc1-c1ccnc(C(C)(C)C(F)(F)F)c1` (stereo not drawn) was tested. Which viability, T/C (compound 0.0316 µM) did it give?
**A.** 100% and 105%

**Q.** What about the viability, T/C (compound 0.1 µM) of the same compound?
**A.** 91.2% and 91.5%

**Q.** What about the viability, T/C (compound 0.316 µM) of the same compound?
**A.** 84.4% and 85.5%

**Q.** And the viability, T/C (compound 1 µM)?
**A.** 80.7% and 83.9%

**Q.** What about the viability, T/C (compound 3.16 µM) of the same compound?
**A.** 68.8% and 66.5%

**Q.** And the viability, T/C (compound 10 µM)?
**A.** 55.6% and 54.2%

**Q.** And the IC50 (curve of compound)?
**A.** > 10000 nM

**Q.** `Cn1cnc2c(F)c(Nc3ccc(Br)cc3Cl)c(C(=O)NOCCO)cc21` + CC(C)NCC(C(=O)N1CCN(c2ncnc3c2C(C)CC3O)CC1)c1ccc(Cl)cc1 was tested. Which IC50 [1] did it give?
**A.** < 9.49 nM

**Q.** What about the IC50 [2] of the same compound?
**A.** < 9.49 nM

**Q.** What about the IC50 [3] of the same compound?
**A.** < 9.49 nM

**Q.** What about the IC50 [4] of the same compound?
**A.** < 9.49 nM

**Q.** What about the IC50 [5] of the same compound?
**A.** < 9.49 nM

**Q.** And the viability, T/C (second compound 0.3 µM, first compound 0.00949 µM)?
**A.** 36.2%

**Q.** And the viability, T/C (second compound 0.3 µM, first compound 0.03 µM)?
**A.** 15.6%

**Q.** What about the viability, T/C (second compound 0.3 µM, first compound 0.0949 µM) of the same compound?
**A.** 5.04%

**Q.** What about the viability, T/C (second compound 0.3 µM, first compound 0.3 µM) of the same compound?
**A.** 5.04%

**Q.** And the viability, T/C (second compound 0.3 µM, first compound 0.949 µM)?
**A.** 2.85%

**Q.** What about the viability, T/C (second compound 0.3 µM, first compound 3 µM) of the same compound?
**A.** 1.59%

**Q.** What about the viability, T/C (second compound 0.949 µM, first compound 0.00949 µM) of the same compound?
**A.** 32.6%

**Q.** And the viability, T/C (second compound 0.949 µM, first compound 0.03 µM)?
**A.** 12.9%

**Q.** And the viability, T/C (second compound 0.949 µM, first compound 0.0949 µM)?
**A.** 4.14%

**Q.** What about the viability, T/C (second compound 0.949 µM, first compound 0.3 µM) of the same compound?
**A.** 2.7%

**Q.** And the viability, T/C (second compound 0.949 µM, first compound 0.949 µM)?
**A.** 1.73%

**Q.** And the viability, T/C (second compound 0.949 µM, first compound 3 µM)?
**A.** 1.41%

**Q.** And the viability, T/C (second compound 3 µM, first compound 0.00949 µM)?
**A.** 24.3%

**Q.** What about the viability, T/C (second compound 3 µM, first compound 0.03 µM) of the same compound?
**A.** 10.2%

**Q.** And the viability, T/C (second compound 3 µM, first compound 0.0949 µM)?
**A.** 2.52%

**Q.** And the viability, T/C (second compound 3 µM, first compound 0.3 µM)?
**A.** 1.7%

**Q.** What about the viability, T/C (second compound 3 µM, first compound 0.949 µM) of the same compound?
**A.** 1.41%

**Q.** What about the viability, T/C (second compound 3 µM, first compound 3 µM) of the same compound?
**A.** 0.98%

**Q.** What about the viability, T/C (second compound 9.49 µM, first compound 0.00949 µM) of the same compound?
**A.** 19.3%

**Q.** And the viability, T/C (second compound 9.49 µM, first compound 0.03 µM)?
**A.** 9.42%

**Q.** What about the viability, T/C (second compound 9.49 µM, first compound 0.0949 µM) of the same compound?
**A.** 2.79%

**Q.** And the viability, T/C (second compound 9.49 µM, first compound 0.3 µM)?
**A.** 1.33%

**Q.** And the viability, T/C (second compound 9.49 µM, first compound 0.949 µM)?
**A.** 0.9%

**Q.** And the viability, T/C (second compound 9.49 µM, first compound 3 µM)?
**A.** 0.56%

**Q.** What about the viability, T/C (second compound 30 µM, first compound 0.00949 µM) of the same compound?
**A.** 21.7%

**Q.** And the viability, T/C (second compound 30 µM, first compound 0.03 µM)?
**A.** 8.51%

**Q.** What about the viability, T/C (second compound 30 µM, first compound 0.0949 µM) of the same compound?
**A.** 2.57%

**Q.** What about the viability, T/C (second compound 30 µM, first compound 0.3 µM) of the same compound?
**A.** 0.97%

**Q.** And the viability, T/C (second compound 30 µM, first compound 0.949 µM)?
**A.** 0.37%

**Q.** And the viability, T/C (second compound 30 µM, first compound 3 µM)?
**A.** 0.35%

**Q.** Which results are given for `CC(C)CC(NC(=O)C(Cc1ccccc1)NC(=O)c1cnccn1)B(O)O` (stereo not drawn)?
**A.** viability, T/C (compound 31.6 pM): 117% and 109%; viability, T/C (compound 0.0001 µM): 96.5% and 94.3%; viability, T/C (compound 0.000316 µM): 101% and 98.5%; viability, T/C (compound 0.001 µM): 113% and 109%; viability, T/C (compound 0.00316 µM): 114% and 110%; viability, T/C (compound 0.01 µM): 88.5% and 99.6%; IC50 (curve of compound): > 10 nM

**Q.** Which viability, T/C (compound 0.00316 µM) does the source give for `COc1c(OCCCN2CCOCC2)ccc2c3n(c(=NC(=O)c4cnc(N)nc4)nc12)CCN3` here?
**A.** 93.1% and 92.3%

**Q.** And the viability, T/C (compound 0.01 µM)?
**A.** 71.8% and 74%

**Q.** And the viability, T/C (compound 0.0316 µM)?
**A.** 60.8% and 56.7%

**Q.** What about the viability, T/C (compound 0.1 µM) of the same compound?
**A.** 44.8% and 46.6%

**Q.** What about the viability, T/C (compound 0.316 µM) of the same compound?
**A.** 31.1% and 30.9%

**Q.** What about the viability, T/C (compound 1 µM) of the same compound?
**A.** 20.5% and 23.6%

**Q.** What about the IC50 (curve of compound) of the same compound?
**A.** 63.9 nM and 61.4 nM
